Assay results published in US9080154B1, “Cancer stem cell survivor lines” (BOWLING GREEN STATE UNIVERSITY, priority 2012, dated 2015).

How the values were obtained:
[1] = tested on: KY-10 cell line; assay: crystal violet assay, cells remaining after curcumin; format: cell-based, human; settings: 30 hrs, concentration that kills half the cells
Method: (§1) To determine the effect of different doses of curcumin on the ESCC lines, each cell line was plated in 24-well plates (Corning) at a density of 5×10^4 cells/well in complete DMEM, and incubated at 37° C. Curcumin (Sigma-Aldrich, St Louis, Mo.) was dissolved in dimethyl sulfoxide (DMSO) to make a stock solution of 20 mM curcumin. For each experiment, stock solution was diluted to the final concentrations (20, 30, 40, 60 and 80 μM) in complete DMEM. Twenty-four hours after plating, the wells were washed with PBS once, and 1 ml of each curcumin dosage was added (4 wells/dosage) and incubated for 30 hrs. Four other wells received complete DMEM or complete DMEM with 0.2% DMSO as controls. The inhibition of cell growth in response to curcumin treatment was assayed with the crystal violet staining assay according to a standard protocol. Briefly, the cells in each well were washed once with PBS, stained with 200 μl crystal violet in 50% ethanol (10 mg/ml), and incubated at room temperature for 10 min. The crystal violet was then removed and the wells were washed two times with distilled water, and 600 μl of 1% sodium dodecylsulfate (SDS) in water was added to each well. The plates were maintained overnight at room temperature on a shaker to dissolve the dye. Absorbance was read at 490 nm using a Wallac Victor 1420 Multilabel plate reader (Perkin Elmer, Waltham, Mass.). The background readings from the SDS solution were subtracted from each reading and the percentage of cells remaining after curcumin treatment was calculated. The results were plotted in OriginPro 7.5 (OriginLab) and analyzed by ANOVA.
(§2) To assess the sensitivity of the six human ESCC lines to curcumin, the cell lines (TE-1, TE-8, KY-5, KY-10, YES-1, and YES-2) were plated in 24-well plates for 24 hrs and then exposed to 20, 30, 40, 60, and 80 μM curcumin and to 0.2% DMSO as a control for 30 hrs. The resulting cell density was determined by standard crystal violet assay. The cell density remaining after the treatment is shown in the dose-response curve (FIG. 2). […] However, KY-5 had the highest percentage of cells remaining at the highest curcumin concentration, and the YES-2 cell line had the lowest percentage of cells remaining. When the cell lines were ranked from low to high according to their sensitivity to 60 μM curcumin the order was: KY-5, YES-1, TE-8, TE-1, KY-10, and YES-2.

[2] = tested on: KY-5 cell line; assay: as above; format: cell-based, human; settings: 30 hrs
Method: as §1, §2

[3] = tested on: YES-2 cell line; assay: as above; format: cell-based, human; settings: 30 hrs
Method: as §1, §2

[4] = tested on: six human ESCC lines (TE-1, TE-8, KY-5, KY-10, YES-1, YES-2); assay: as above; format: cell-based; settings: 20-80 μM curcumin, 30 hrs; all six ESCC lines
Method: as §1, with “The inhibition of cell growth in response to curcumin treatment was assayed with the crystal violet staining assay according to a standard protocol. Briefly, the cells in each well were washed once with PBS, stained with 200 μl crystal violet in 50% ethanol (10 mg/ml), and incubated at room temperature for 10 min. The crystal violet was then removed and the wells were washed two times with distilled water, and 600 μl of 1% sodium dodecylsulfate (SDS) in water was added to each well. The plates were maintained overnight at room temperature on a shaker to dissolve the dye.” left out
To assess the sensitivity of the six human ESCC lines to curcumin, the cell lines (TE-1, TE-8, KY-5, KY-10, YES-1, and YES-2) were plated in 24-well plates for 24 hrs and then exposed to 20, 30, 40, 60, and 80 μM curcumin and to 0.2% DMSO as a control for 30 hrs. The resulting cell density was determined by standard crystal violet assay. […]

[5] = tested on: KY-10 cell line; assay: surviving colonies after curcumin treatment; format: cell-based, human; settings: 60 μM curcumin, 30 hrs
Method: (§3) To select for a curcumin-surviving cell subpopulation, each of the ESCC cell lines was cultured in 100-mm dishes (1×10^5 cells/dish) with complete DMEM and incubated at 37° C. until reaching near confluency, approximately 80%. After incubation, the medium was removed and the cells were incubated in complete DMEM containing either 40 or 60 μM curcumin in dissolved in 0.2% DMSO for 30 hrs. After incubation, the medium-containing curcumin was removed and replaced with complete DMEM to allow cells that survived the treatment to grow. After the surviving cells formed colonies (normally four weeks after treatment), the colonies were counted, trypsinized, and passaged. The cell lines that developed were designated the curcumin-surviving cell lines.
(§4) According to the dose-response results, 60 μM curcumin was chosen to select for the curcumin-surviving cell line subpopulations. To establish this subpopulation, 1×10^5 cells from each ESCC lines were plated into a 100 mm tissue culture dishes and incubated until they reached near confluency. The cells were then exposed to 60 μM curcumin for 30 hrs. and the surviving colonies formed were counted. The number of colonies formed after 60 μM curcumin treatment varied among the six cell lines.

[6] = tested on: KY-5 cell line; assay: surviving colonies after curcumin treatment; format: cell-based, human; settings: 60 μM curcumin, 30 hrs
Method: as §3, §4

[7] = tested on: TE-1 cell line; assay: surviving colonies after curcumin treatment; format: cell-based, human; settings: 60 μM curcumin, 30 hrs
Method: as §3, §4

[8] = tested on: TE-8 cell line; assay: surviving colonies after curcumin treatment; format: cell-based, human; settings: 60 μM curcumin, 30 hrs
Method: as §3, §4

[9] = tested on: YES-1 cell line; assay: surviving colonies after curcumin treatment; format: cell-based, human; settings: 60 μM curcumin, 30 hrs
Method: as §3, §4

[10] = tested on: YES-2 cell line; assay: surviving colonies after curcumin treatment; format: cell-based, human; settings: 30 hrs
Method: as §3, §4

[11] = tested on: ALDH1A1; assay: ALDH1A1 immunocytochemistry of curcumin-surviving lines; format: cell-based, human; settings: survived 60 μM curcumin
Method: as §3
(§5) To assess the expression of the stem cell markers ALDH1A1 and CD44 in both the original ESCC cell lines and the curcumin-surviving cell lines, each line was grown on glass cover slips in complete DMEM. After two days, the cover slips were rinsed with PBS and fixed with methanol for 5 min. The cover slips were then washed three times with PBS, exposed to 0.3% hydrogen peroxide for 3 min and rinsed three times with PBS. […]
(§6) The images of cell cultures immunostained for ALDH1A1 or CD44 were analyzed with ImageJ (NIH) and OriginLab (Microcal) software. […]

[12] = tested on: CD44; assay: CD44 immunocytochemistry of curcumin-surviving lines; format: cell-based, human
Method: as §3, §5, §6

[13] = tested on: ALDH1A1; assay: ALDH1A1 level by ELISA in curcumin-surviving lines; format: cell-based, human; settings: all six surviving lines; t-test p<0.005
Method: (§7) To select for a curcumin-surviving cell subpopulation, each of the ESCC cell lines was cultured in 100-mm dishes (1×10^5 cells/dish) with complete DMEM and incubated at 37° C. until reaching near confluency, approximately 80%. After incubation, the medium was removed and the cells were incubated in complete DMEM containing either 40 or 60 μM curcumin in dissolved in 0.2% DMSO for 30 hrs. After incubation, the medium-containing curcumin was removed and replaced with complete DMEM to allow cells that survived the treatment to grow. After the surviving cells formed colonies (normally four weeks after treatment), the colonies were counted, trypsinized, and passaged. The cell lines that developed were designated the curcumin-surviving cell lines. To determine the level of ALDH1A1 and RelA (p65), the major subunit of transcription factor (NF-κB), on both curcumin-surviving cells and original cell lines, ELISA was performed as described previously. Briefly, each cell line was cultured in 96-well plates (5×10^4 cells/well) and incubated for 24 hrs at 37° C. After incubation, the wells were washed once with PBS and fixed with methanol for 5 min; the wells were then washed twice with PBS. […] The antigen-antibody reactions were measured by determining the optical density (O.D.) at 410 nm using MR-600 microwell plate reader (Dynatech Lab Inc.). The resulting absorbance was analyzed using ANOVA.

[14] = tested on: RelA (p65), the major subunit of NF-κB; assay: NF-κB level by ELISA in curcumin-surviving lines; format: cell-based, human
Method: as §7, with “PBS. Different dilutions of each antibody (anti-p65, Santa Cruz Biotechnology, SC-109, 200 μg/ml, and anti-ALDH1A1, Proteintech Group, 15910-1-AP, 133 μg/ml) were prepared in complete DMEM (1:50, 1:100, 1:200 and 1:500, 1:1000, 1:2000, respectively). The wells were incubated with 100 μl of each dilution (3 wells/dilution) for 2 hrs at 37° C. After incubation, the wells were washed with PBS three times and incubated with 100 μl/well of galactosidase-conjugated goat anti-rabbit secondary antibody (Southern Biotech, Birmingham, Ala.) (1:500 dilution in complete DMEM) for 2 hrs at 37° C.” for “PBS.”

[15] = concentration that kills half the cells

Q: COc1cc(/C=C/C(=O)CC(=O)/C=C/c2ccc(O)c(OC)c2)ccc1O [curcumin] was tested. Which LD50 [1] did it give?
A: less than 10 μM

Q: And the “cells remaining after curcumin” value ([2]; 80 μM curcumin, crystal violet)?
A: 37%

Q: What about the LD50 [2, 15] of the same compound?
A: 32 µM

Q: What about the “attached cells remaining after curcumin” value ([3]; 80 μM curcumin, crystal violet) of the same compound?
A: 4%

Q: And the LD50 [3, 15]?
A: 15 µM

Q: And the reduction in cells [4]?
A: reduction in cells in a dosage dependent manner

Q: What about the “number of surviving colonies formed” value [5] of the same compound?
A: 19

Q: And the “number of surviving colonies formed” value [6]?
A: too many colonies to count

Q: And the “number of surviving colonies formed” value [7]?
A: 8

Q: What about the “number of surviving colonies formed” value [8] of the same compound?
A: 17

Q: What about the “number of surviving colonies formed” value [9] of the same compound?
A: 25

Q: And the “number of surviving colonies formed” value ([10]; 40 μM curcumin)?
A: 15

Q: And the “number of surviving colonies formed” value ([10]; 60 μM curcumin)?
A: 0

Q: And the “percentage of high ALDH1A1-staining cells in curcumin-surviving line” value ([11]; KY-5S, original lines ranged 11.3% to 55.7%, KY-5 greatest)?
A: 19%

Q: And the “percentage of high ALDH1A1-staining cells in curcumin-surviving line” value ([11]; TE-8S)?
A: 0%

Q: And the “percentage of high CD44-staining cells in curcumin-surviving line” value ([12]; YES-1S, survived 60 μM curcumin, original YES-1 16%)?
A: 6.5%

Q: And the “percentage of high CD44-staining cells in curcumin-surviving line” value ([12]; YES-2S, survived 40 μM curcumin, original YES-2 19%)?
A: 9.2%

Q: And the “ALDH1A1 level of curcumin-surviving lines compared to original lines” value [13]?
A: lower ALDH1A1 level

Q: And the “NF-κB level of curcumin-surviving lines compared to original lines” value ([14]; KY-5, YES-1 and YES-2 surviving lines, t-test p<0.005)?
A: lower NF-κB levels

Q: And the “NF-κB level of curcumin-surviving line compared to original line” value ([14]; KY-10 surviving line, t-test p>0.05)?
A: no difference

Q: And the “NF-κB level of curcumin-surviving lines compared to original lines” value ([14]; TE-1 and TE-8 surviving lines)?
A: increase of NF-κB level
